# Data: patent publication US20260108529A1, “FUSED AMINO PYRIMIDINE COMPOUNDS FOR TREATMENT OF TINNITUS, ACUTE SENSORINEURAL HEARING LOSS, AGE-RELATED HEARING LOSS, AND MENIERE'S DISEASE” (Ovid Therapeutics Inc., priority 2024, published 2026)
# Target: T1, KCC2 (Homo sapiens, UniProt Q9H2X9)
# T1 construct: expressed in transfected cells; host or cells: HEK-293 (ATCC CRL-1573)
# T1 sequence (Q9H2X9 1-1116 isoform Q9H2X9-2): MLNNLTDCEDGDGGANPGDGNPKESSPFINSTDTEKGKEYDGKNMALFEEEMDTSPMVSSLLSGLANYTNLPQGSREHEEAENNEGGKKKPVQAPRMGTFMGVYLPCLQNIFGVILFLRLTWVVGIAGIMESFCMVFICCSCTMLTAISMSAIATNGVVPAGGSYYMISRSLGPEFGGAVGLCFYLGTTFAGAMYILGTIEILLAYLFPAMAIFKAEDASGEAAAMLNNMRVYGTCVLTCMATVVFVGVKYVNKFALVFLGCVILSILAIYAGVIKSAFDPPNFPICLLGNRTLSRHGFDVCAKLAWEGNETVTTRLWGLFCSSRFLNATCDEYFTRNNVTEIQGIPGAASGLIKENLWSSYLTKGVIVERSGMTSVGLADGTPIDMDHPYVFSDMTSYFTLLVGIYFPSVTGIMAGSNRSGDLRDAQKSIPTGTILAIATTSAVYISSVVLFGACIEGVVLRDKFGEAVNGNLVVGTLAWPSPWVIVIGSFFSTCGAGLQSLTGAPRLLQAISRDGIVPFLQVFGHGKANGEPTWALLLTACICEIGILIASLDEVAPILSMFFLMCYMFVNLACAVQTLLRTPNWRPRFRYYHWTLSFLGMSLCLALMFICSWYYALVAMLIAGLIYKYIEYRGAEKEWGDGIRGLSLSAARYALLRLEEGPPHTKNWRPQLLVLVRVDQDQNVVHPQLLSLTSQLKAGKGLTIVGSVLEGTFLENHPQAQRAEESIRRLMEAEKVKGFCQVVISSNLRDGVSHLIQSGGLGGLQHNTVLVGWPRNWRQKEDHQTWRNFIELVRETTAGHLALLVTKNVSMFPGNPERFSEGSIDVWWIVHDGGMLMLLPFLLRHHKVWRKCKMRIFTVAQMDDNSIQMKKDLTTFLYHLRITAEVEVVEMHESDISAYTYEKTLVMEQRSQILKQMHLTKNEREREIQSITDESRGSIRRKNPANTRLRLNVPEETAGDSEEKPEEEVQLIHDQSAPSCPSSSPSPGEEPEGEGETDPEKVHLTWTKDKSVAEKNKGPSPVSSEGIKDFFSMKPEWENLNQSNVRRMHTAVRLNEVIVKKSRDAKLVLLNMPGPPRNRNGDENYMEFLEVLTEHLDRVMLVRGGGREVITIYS
# Test: Biotinylation, plasma membrane level of KCC2 in HEK-293 cells
# Type: cell-based
# Details: 15 min, surface/total KCC2
# Description: Cell Culture and biotinylation. HEK-293 cells were purchased from ATCC (CRL-1573) and transfected with human KCC2 and GFP expression plasmids using Lipofectamine 2000. Cells were utilized for experimentation 48-72 h following transfection. Cells were biotinylated at 4° C. using NHS-Biotin. Following lysis and purification on immobilized avidin beads, cell surface and total fractions were subject to immunoblotting as outlined previously (Conway et al., 2017, supra).
# The reliability of the biotinylation procedure was assessed via immunoblotting with antibodies against the cytosolic protein actin. Actin was present in the total lysates but was absent from the surface fractions (FIG. 2C).
compound,measurement,setting,value
"C[C@@H]1CN(c2nc3c(c(Nc4ccc(C5CCCCC5)cc4)n2)COC3)CCO1 [Compound A, (R)—N-(4-cyclohexylphenyl)-2-(2-methylmorpholino)-5,7-dihydrofuro[3,4-d]pyrimidin-4-amine]",level of KCC2 on the plasma membrane,0.3 μM,94.5±8.4 % of control
same,level of KCC2 on the plasma membrane,3 μM,104.7±8.4 % of control
